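Where inhibition never reached the appropriate level, the endpoint shown equals the highest concentration tested. Otherwise, values were interpolated linearly from a five-concentration, 48-hour dose response in 96-well plates. At the GI50, growth is halved.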 Calls of active or inactive are those of the source. Cut-off read from the data, not from the text of the source: active = GI50 up to about 1.1 µM and inactive = higher.
Assays:
Test in all cases: DTP human tumour cell line panel, 48 h
[1] = tested on: HCT-15
[2] = tested on: TK-10
[3] = tested on: DU-145
[4] = tested on: K562
[5] = tested on: SNB-19
[6] = tested on: T47D
[7] = tested on: HOP-62
[8] = tested on: U-251
[9] = tested on: RXF 393
[10] = tested on: MDA-MB-435
[11] = tested on: NCI-H23
[12] = tested on: SN12C
[13] = tested on: UO-31
[14] = tested on: OVCAR-4
[15] = tested on: ACHN
[16] = tested on: LOX IMVI
[17] = tested on: Malme-3M
[18] = tested on: EKVX
[19] = tested on: OVCAR-3
[20] = tested on: CAKI-1
[21] = tested on: MCF7
[22] = tested on: HCT-116
[23] = tested on: 786-0
[24] = tested on: NCI-H226
[25] = tested on: HCC 2998
[26] = tested on: COLO 205
[27] = tested on: A549
[28] = tested on: SR
[29] = tested on: MOLT-4
[30] = tested on: SW-620
[31] = tested on: IGROV-1
[32] = tested on: MDA-MB-231
[33] = tested on: SF-539
[34] = tested on: HOP-92
[35] = tested on: A498
[36] = tested on: M14
[37] = tested on: OVCAR-8
[38] = tested on: SK-MEL-5
[39] = tested on: NCI-H460
[40] = tested on: MDA-N
[41] = tested on: OVCAR-5
[42] = tested on: PC-3
[43] = tested on: NCI/ADR-RES
[44] = tested on: SK-OV-3
[45] = tested on: SNB-75
[46] = tested on: SK-MEL-28
[47] = tested on: HT-29
[48] = tested on: NCI-H522
[49] = tested on: SF-268
[50] = tested on: HL-60
[51] = tested on: SF-295
[52] = tested on: SK-MEL-2
[53] = tested on: BT-549
[54] = tested on: UACC-257
[55] = tested on: Hs-578T
[56] = tested on: RPMI-8226
[57] = tested on: UACC-62
[58] = tested on: KM12
[59] = tested on: CCRF-CEM

## CCCCCCCCCCCCOP(=O)(O)OCC(N)C(=O)O (centres undefined)
[1]
  GI50: 17 µM
[2]
  GI50: 24.7 µM (inactive)
[3]
  GI50: 83.4 µM (inactive)
[4]
  GI50: 29.5 µM (inactive)
[5]
  GI50: 16.3 µM (inactive)
[6]
  GI50: > 100 µM (inactive)
[7]
  GI50: 15.4 µM (inactive)
[8]
  GI50: 11.9 µM (inactive)
[9]
  GI50: 21 µM (inactive)
[10]
  GI50: 18.2 µM (inactive)
[11]
  GI50: 29.9 µM (inactive)
[12]
  GI50: 22.1 µM (inactive)
[13]
  GI50: 15.5 µM (inactive)
[14]
  GI50: 39 µM (inactive)
[15]
  GI50: 34.1 µM (inactive)
[16]
  GI50: 20.4 µM (inactive)
[17]
  GI50: > 100 µM (inactive)
[18]
  GI50: 69.8 µM (inactive)
[19]
  GI50: 17.3 µM (inactive)
[20]
  GI50: 30.1 µM (inactive)
[21]
  GI50: 39.3 µM (inactive)
[22]
  GI50: 12.1 µM (inactive)
[23]
  GI50: 30.2 µM (inactive)
[24]
  GI50: 19.7 µM (inactive)
[25]
  GI50: 29.8 µM (inactive)
[26]
  GI50: > 100 µM (inactive)
[27]
  GI50: 24.7 µM (inactive)
[28]
  GI50: 22 µM (inactive)
[29]
  GI50: 11.2 µM (inactive)
[30]
  GI50: 44.4 µM (inactive)
[31]
  GI50: 35.6 µM (inactive)
[32]
  GI50: 23.9 µM (inactive)
[33]
  GI50: 22.3 µM (inactive)
[34]
  GI50: 20.5 µM (inactive)
[35]
  GI50: 24.6 µM (inactive)
[36]
  GI50: 68.1 µM (inactive)
[37]
  GI50: 38.5 µM (inactive)
[38]
  GI50: 23.4 µM (inactive)
[39]
  GI50: 13.6 µM (inactive)
[40]
  GI50: 21.2 µM (inactive)
[41]
  GI50: 40.8 µM (inactive)
[42]
  GI50: 15.3 µM (inactive)
[43]
  GI50: 36.3 µM (inactive)
[44]
  GI50: 17.1 µM (inactive)
[45]
  GI50: 18.5 µM (inactive)
[46]
  GI50: 94.8 µM (inactive)
[47]
  GI50: 43.3 µM (inactive)
[48]
  GI50: 31.8 µM (inactive)
[49]
  GI50: 26.8 µM (inactive)
[50]
  GI50: 17.4 µM (inactive)
[51]
  GI50: 15.7 µM (inactive)
[52]
  GI50: 22.8 µM (inactive)
[53]
  GI50: 21.2 µM (inactive)
[54]
  GI50: 37.2 µM (inactive)
[55]
  GI50: 10.3 µM (inactive)
[56]
  GI50: 24.7 µM (inactive)

## CCc1nc(N)nc(N)c1-c1ccc(N2CCNCC2)cc1
[1]
  GI50: 54.5 µM
[2]
  GI50: > 100 µM (inactive)
[3]
  GI50: 62.7 µM (inactive)
[4]
  GI50: 24.2 µM (inactive)
[5]
  GI50: 47.6 µM (inactive)
[6]
  GI50: 57.7 µM (inactive)
[7]
  GI50: 55.8 µM (inactive)
[8]
  GI50: 88.7 µM (inactive)
[9]
  GI50: 64.9 µM (inactive)
[10]
  GI50: 59.8 µM (inactive)
[11]
  GI50: 46 µM (inactive)
[12]
  GI50: 87.7 µM (inactive)
[13]
  GI50: > 100 µM (inactive)
[14]
  GI50: 74.8 µM (inactive)
[15]
  GI50: 51.3 µM (inactive)
[16]
  GI50: 39.7 µM (inactive)
[18]
  GI50: > 83 µM (inactive)
[19]
  GI50: > 83.8 µM (inactive)
[20]
  GI50: > 97.3 µM (inactive)
[21]
  GI50: 47.3 µM (inactive)
[22]
  GI50: 35.2 µM (inactive)
[23]
  GI50: 60.5 µM (inactive)
[24]
  GI50: > 100 µM (inactive)
[25]
  GI50: 42.8 µM (inactive)
[26]
  GI50: 18.9 µM (inactive)
[27]
  GI50: 54.3 µM (inactive)
[28]
  GI50: 23.4 µM (inactive)
[29]
  GI50: 41 µM (inactive)
[30]
  GI50: 56.5 µM (inactive)
[31]
  GI50: 64.7 µM (inactive)
[32]
  GI50: > 93.3 µM (inactive)
[33]
  GI50: 77.3 µM (inactive)
[34]
  GI50: > 100 µM (inactive)
[35]
  GI50: > 97.1 µM (inactive)
[36]
  GI50: 34.9 µM (inactive)
[37]
  GI50: 66.5 µM (inactive)
[38]
  GI50: 19.8 µM (inactive)
[39]
  GI50: 33.1 µM (inactive)
[40]
  GI50: 64.7 µM (inactive)
[41]
  GI50: > 100 µM (inactive)
[42]
  GI50: 49.3 µM (inactive)
[43]
  GI50: > 100 µM (inactive)
[57]
  GI50: 69 µM (inactive)
[58]
  GI50: > 95.9 µM (inactive)
[59]
  GI50: 33.7 µM (inactive)
[44]
  GI50: > 100 µM (inactive)
[45]
  GI50: > 100 µM (inactive)
[46]
  GI50: > 78.5 µM (inactive)
[47]
  GI50: 38.6 µM (inactive)
[48]
  GI50: 55.1 µM (inactive)
[49]
  GI50: 84.7 µM (inactive)
[50]
  GI50: 34.4 µM (inactive)
[51]
  GI50: 79.6 µM (inactive)
[52]
  GI50: > 100 µM (inactive)
[53]
  GI50: 64 µM (inactive)
[54]
  GI50: 33.2 µM (inactive)
[55]
  GI50: > 100 µM (inactive)
[56]
  GI50: > 56.1 µM (inactive)
